Source: patent publication US9980910B2, “Enteric-coated sodium metabisulfite livestock feed additive for vomitoxin detoxification” (priority 2010, dated 2018)

Key:
[1] = system: pigs; conditions: cited from earlier work
[2] = system: 25-50 lb pigs fed vomitoxin-contaminated corn; conditions: P<0.01
[3] = Destruction of vomitoxin by sodium metabisulfite in vitro at two pH levels
Method: Sodium metabisulfite was tested for its ability to destroy vomitoxin in vitro at different pH levels. […] For example, when tested at 10 lb/ton, sodium metabisulfite destroyed 70% of the measurable vomitoxin at pH 6.5, but none at pH 3.0. At 20 lbs/ton sodium metabisulfite destroyed over 97% of the vomitoxin at pH 6.5 but only 41% at pH 3.0. Destruction levels less than 10% are considered to be random variation in this assay and not related to treatment. […] Although the levels of sodium metabisulfite required to destroy vomitoxin in this in vitro assay are higher than the “safe” level of 0.35% determined in a previous referenced feeding trial in pigs, other studies (Tables 1 and 3) clearly show positive effects of sodium metabisulfite at levels of 0.125 to 0.25% in vomitoxin-contaminated diets.

[4] = system: pigs; conditions: feeding to pigs; cited from earlier work
[5] = system: 66-278 lbs pigs; assay: Growth performance of 66-278 lbs pigs fed sodium metabisulfite in clean diets (F6_G07_01); type: in vivo; conditions: level increased from 0 to 0.5 to 1.0% in non-vomitoxin contaminated diets
From the text: The data presented in Table 2 confirms that toxic effects begin to occur between 0 and 0.5% sodium metabisulfite in the diet.

[6] = diet containing approximately 5 ppm vomitoxin, 25-55 lb pigs
[7] = vomitoxin-contaminated diet, 5 to 20 lbs/ton of diet (0.25 to 1.0%)

| SMILES | Vomitoxin level resulting in complete feed refusal, vomiting, immune suppression, and gastrointestinal lesions [1] | Reduction of daily feed intake [2, 6] [%] | Reduction of growth rate [2, 6] [%] | % destruction of vomitoxin ([3]; pH 3.0, metabisulfite 2.5 lbs/ton) [%] | % destruction of vomitoxin ([3]; pH 3.0, metabisulfite 5 lbs/ton) [%] | % destruction of vomitoxin ([3]; pH 3.0, metabisulfite 20 lbs/ton) [%] | % destruction of vomitoxin ([3]; pH 6.5, metabisulfite 2.5 lbs/ton) [%] | % destruction of vomitoxin ([3]; pH 6.5, metabisulfite 5 lbs/ton) [%] | % destruction of vomitoxin ([3]; pH 6.5, metabisulfite 10 lbs/ton) [%] | "no-effect" level (no toxic effects) [4] | Average daily feed intake (effect in words) [5] | Average daily feed intake (ADFI) (effect in words) [2, 7] | Average daily gain (ADG) (effect in words) [2, 7] |
| --- | --- | --- | --- | --- | --- | --- | --- | --- | --- | --- | --- | --- | --- |
| CC1=C[C@H]2O[C@@H]3[C@H](O)C[C@](C)([C@@]2(CO)[C@H](O)C1=O)[C@]31CO1 [Vomitoxin, deoxynivalenol] | above 5 ppm | 20 | 15 | – | – | – | – | – | – | – | – | – | – |
| O=S([O-])S(=O)(=O)[O-].[Na+].[Na+] [sodium metabisulfite, Sodium metabisulfite] | – | – | – | 4.2 | 0.9 | 41 | 0.0 | 0.0 | 70 | 0.35 % of the diet | linearly reduced | improves | improves |
